Experimental data taken from publication PMC5766233, “Ternary copper(II) complex: NCI60 screening, toxicity studies, and evaluation of efficacy in xenograft models of nasopharyngeal carcinoma” (PLoS ONE, 2018).
Read-outs that look alike come from different tables or passages of the source.

Columns and labels:
[1] = tested on: CYP isoforms 1A2, 2C9, 2C19, 2D6, 2B6, 2C8 and 3A4; assay: CYP450 inhibition assay, summary over all tested isoforms; assay type: in vitro ADME, human; details: pooled probe substrates; read-out: IC50 values against all tested isoforms
Protocol: (§1) In the CYP inhibition assay, human liver microsomes were incubated with the Cu(II) complex or reference standard. The inhibitory effects of these compounds were investigated against the major CYP isoforms namely 1A2, 2C9, 2C19, 2D6, 2B6, 2C8 and 3A4 with their respective isoform probe substrates in one reaction mixture (pooled probe substrate format using LC-MS/MS).
Pooled human liver microsomes (Sekisui Xeno Tech, LLC., Kansas City, KS, USA) were incubated with different concentrations of Cu(II) complex or reference standards in buffer containing 0.1% DMSO for 10 min at 37°C and the residual enzyme activity was measured using pooled probe substrates method by pooled LC-MS/MS. Briefly, incubation mixtures were prepared in a total volume of 200 μL with final component concentrations as follows: 0.1 M potassium phosphate buffer (pH 7.4), 1.5 mM NADPH, and 0.25 mg/ml HLM. […] After 20 min of incubation, the reactions were terminated by addition of 200 μL ice-cold acetonitrile (Rankem, Avantor Performance Materials India Limited, Andhra Pradesh, India) containing telmisartan and carbamazepine as internal standards (all probe substrates and standards were from Sigma Aldrich). […] The percent inhibition was calculated using the following equation: %Inhibition=100‑[(activityintestwells/activityinbasalcontrolwells)×100]

rat primary hepatocytes = assay: Cytotoxicity in rat primary hepatocytes (resazurin); details: 72 h
CYP 3A4 = target: T1, CYP 3A4 (Homo sapiens, UniProt P08684); assay: CYP450 inhibition assay, pooled human liver microsomes; assay type: in vitro ADME; details: probe midazolam
T1 construct: tissue Sekisui Xeno Tech, LLC; host or cells: pooled human liver microsomes
T1 sequence (P08684 whole entry): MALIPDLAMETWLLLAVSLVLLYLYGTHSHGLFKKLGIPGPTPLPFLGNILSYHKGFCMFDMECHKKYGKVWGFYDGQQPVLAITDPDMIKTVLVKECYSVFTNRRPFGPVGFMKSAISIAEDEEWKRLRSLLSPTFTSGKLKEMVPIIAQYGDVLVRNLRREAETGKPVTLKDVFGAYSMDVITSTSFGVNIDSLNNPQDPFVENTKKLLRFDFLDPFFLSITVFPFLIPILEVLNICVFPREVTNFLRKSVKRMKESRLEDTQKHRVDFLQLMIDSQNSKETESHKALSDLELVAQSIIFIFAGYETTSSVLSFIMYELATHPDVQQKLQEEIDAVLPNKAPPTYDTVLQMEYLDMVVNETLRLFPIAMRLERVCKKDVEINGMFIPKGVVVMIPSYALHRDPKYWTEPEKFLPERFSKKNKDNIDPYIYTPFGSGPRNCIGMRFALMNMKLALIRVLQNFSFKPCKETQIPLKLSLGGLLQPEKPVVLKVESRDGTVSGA
Protocol: as §1
(§2) Pooled human liver microsomes (Sekisui Xeno Tech, LLC., Kansas City, KS, USA) were incubated with different concentrations of Cu(II) complex or reference standards in buffer containing 0.1% DMSO for 10 min at 37°C and the residual enzyme activity was measured using pooled probe substrates method by pooled LC-MS/MS. Briefly, incubation mixtures were prepared in a total volume of 200 μL with final component concentrations as follows: 0.1 M potassium phosphate buffer (pH 7.4), 1.5 mM NADPH, and 0.25 mg/ml HLM. […] After 20 min of incubation, the reactions were terminated by addition of 200 μL ice-cold acetonitrile (Rankem, Avantor Performance Materials India Limited, Andhra Pradesh, India) containing telmisartan and carbamazepine as internal standards (all probe substrates and standards were from Sigma Aldrich). Each reaction mixture was centrifuged at 3,500 rpm for 5 min and the supernatant was subjected to LC-MS/MS analysis. The percent inhibition was calculated using the following equation: %Inhibition=100‑[(activityintestwells/activityinbasalcontrolwells)×100]

CYP 1A2 = target: T2, CYP 1A2 (Homo sapiens, UniProt P05177); assay: as above; assay type: in vitro ADME; details: probe phenacetin
T2 construct: tissue Sekisui Xeno Tech, LLC; host or cells: pooled human liver microsomes
T2 sequence (P05177 1-516): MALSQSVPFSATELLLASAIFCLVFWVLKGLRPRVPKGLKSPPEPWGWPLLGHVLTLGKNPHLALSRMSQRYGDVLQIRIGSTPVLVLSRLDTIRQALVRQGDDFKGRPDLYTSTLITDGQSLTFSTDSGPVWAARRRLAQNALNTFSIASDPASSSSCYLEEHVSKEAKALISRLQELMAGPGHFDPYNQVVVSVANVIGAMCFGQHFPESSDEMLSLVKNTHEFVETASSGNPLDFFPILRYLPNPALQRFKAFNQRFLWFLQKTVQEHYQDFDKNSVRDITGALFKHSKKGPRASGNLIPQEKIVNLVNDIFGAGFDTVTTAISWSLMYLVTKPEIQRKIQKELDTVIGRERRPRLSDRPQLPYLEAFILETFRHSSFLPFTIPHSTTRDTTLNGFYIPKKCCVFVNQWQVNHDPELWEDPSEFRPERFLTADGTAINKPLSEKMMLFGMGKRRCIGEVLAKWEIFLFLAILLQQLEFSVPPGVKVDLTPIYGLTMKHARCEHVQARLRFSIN
Protocol: as §1, §2

CYP 2D6 = target: T3, CYP 2D6 (Homo sapiens, UniProt P10635); assay: as above; assay type: in vitro ADME; details: probe dextromethorphan
T3 construct: tissue Sekisui Xeno Tech, LLC; host or cells: pooled human liver microsomes
T3 sequence (P10635 whole entry): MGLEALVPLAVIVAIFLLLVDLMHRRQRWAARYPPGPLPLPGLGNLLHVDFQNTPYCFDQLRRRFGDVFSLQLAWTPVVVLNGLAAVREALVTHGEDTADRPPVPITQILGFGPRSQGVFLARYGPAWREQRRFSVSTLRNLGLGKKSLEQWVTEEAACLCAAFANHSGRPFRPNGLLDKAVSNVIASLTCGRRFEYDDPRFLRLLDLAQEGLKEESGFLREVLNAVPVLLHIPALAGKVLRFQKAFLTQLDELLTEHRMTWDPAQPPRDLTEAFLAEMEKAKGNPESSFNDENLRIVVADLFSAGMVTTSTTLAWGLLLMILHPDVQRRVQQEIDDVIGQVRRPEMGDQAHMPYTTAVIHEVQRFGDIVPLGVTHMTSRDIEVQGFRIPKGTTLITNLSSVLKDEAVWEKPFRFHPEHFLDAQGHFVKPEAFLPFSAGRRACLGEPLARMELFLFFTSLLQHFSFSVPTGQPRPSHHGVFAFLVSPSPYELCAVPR
Protocol: as §1, §2

[2] = tested on: NCI60 human cancer cell line panel
HK1 xenograft = assay: In vivo efficacy in HK1 xenograft model; set-up: species or system NOD scid gamma female mice
Protocol: Recognizing the relative lack of treatment options for advanced NPC compared to other major cancers in Malaysia and based on our previous finding of the anticancer activity against NPC cells, we proceeded to validate the anticancer properties of the Cu(II) complex in vivo using NPC xenograft models. To test the compound in vivo in the preclinical models, two pilot studies were carried out using the Cu(II) complex. First, the effects of the Cu(II) complex were investigated on HK1 xenograft bearing mice at three different dosage regimens (4, 6 and 8 mg/kg). […] Even though treatment with Cu(II) complex at 8 mg/kg every other day up to 3 doses was effective, 2 out of 7 mice were found deadand the experiment had to be terminated.
2.0 x 10^6 HK1 or C666-1-GFP-Luc2 cells in 100 μl RPMI media mixed with matrigel (BD Matrigel Basement Membrane Matrix; BD Biosciences, Bedford, MA, USA) was inoculated subcutaneously into the right lower flank of the NSG mice. Tumor growth was monitored and measured every other day using a digital caliper (Mitutoyo America Corporation, Aurora, Illinois, USA) until they reached 100–250 mm^3. Then, the mice were randomly assigned into treatment groups. The mice bearing HK1 xenograft tumor were divided into 3 treatment groups and a control (normal saline) group. The first batch received normal saline (one injection daily for 5 days), 6 mg/kg (one injection daily for 5 days) and 8 mg/kg (one injection every other day for 3 doses) of Cu(II) complex while the second batch received normal saline (one injection daily for 4 days), 4 mg/kg (one injection daily for 4 days), 6 mg/kg (one injection daily for 4 days) and 8 mg/kg (one injection every other day for 2 doses) of Cu(II) complex via intraperitoneal route.

SMILES: CC(C)(N)C(=O)[O-].O.O=[N+]([O-])[O-].[Cu+2].c1cnc2c(c1)ccc1cccnc12 [Cu(II) complex, [Cu(phen)(C-dmg)(H2O)]NO3]
- IC50 [1]: 5 to 10 µM
- concentrations at which cytotoxicity is exhibited (rat primary hepatocytes): over 3 μM
- IC50 (rat primary hepatocytes; read-out: IC50 (cytotoxic concentration that kills 50% of the cells), resazurin assay): 4.7 µM
- IC50 (CYP 3A4): 5.46 µM
- IC50 (CYP 1A2): 8.01 µM
- IC50 (CYP 2D6): 10.2 µM
- CC50 [2]: > 100 µM
- cytotoxicity compared with cisplatin (mean LC50) ([2]; NCI60 panel): fivefold more cytotoxic
- CC50 ([2]; read-out: LC50, all renal cell lines): 1 to 10 µM
- CC50 ([2]; read-out: LC50, leukemia panel (CCRF-CEM, HL-60(TB), K-562, MOLT-2, RPMI-8226, SR)): > 100 µM
- GI50 ([2]; read-out: mean GI50, NCI60 panel, 48 h): 1.51 µM
- CC50 ([2]; read-out: mean LC50, NCI60 panel, 48 h): 9.12 µM
- mice found dead (HK1 xenograft; 8 mg/kg every other day up to 3 doses): 2 out of 7
- tumor growth (HK1 xenograft; 4, 6 and 8 mg/kg ip): significantly inhibited the growth of HK1 tumor
- tolerability / body weight (HK1 xenograft; 4 and 6 mg/kg dose regimens): well tolerated with no significant body weight loss
- Histopathological examination of heart, liver, kidney and lung (HK1 xenograft; all the groups): did not show any remarkable changes
- weight of vital organs (HK1 xenograft; all treatment groups vs control): not significantly affected
